Assay results as given in publication PMC6158189, “A pharmacological probe identifies cystathionine β-synthase as a new negative regulator for ferroptosis” (Cell Death & Disease, 2018).

Columns and labels:
HepG2 cells [1] = test: cell viability (CellTiter 96 Aqueous One); type: cell-based, human; conditions: 24 h
Protocol: Fig. 4 CH004 arrests the cell cycle at the S phase. a CH004 reduces the cell viability of HEK293T and HepG2 cells. HEK293T or HepG2 cells were treated with indicated concentrations of CH004 for 24 h before the cell number was analyzed using the CellTiter96® Aqueous One Solution Cell Proliferation Assay (Promega, Materials and Methods). The means at each concentration of one representative experiment are shown as percentages of DMSO (control, 100%). Means ± SDs (n = 3). b Overexpression of hCBS or knock-down of hCBS counteracts the growth inhibition exerted by CH004 in HEK293T cells. Indicated HEK293T stable cell lines were treated with the CH004 or DMSO for 24 h. Then, the cell viability was quantified with the CellTiter 96® Aqueous One Solution Cell Proliferation Assay under the standard protocol (Promega). The means at each concentration are shown as percentages of their respective DMSO controls (100%). Means ± SDs (n = 3). The efficacy for CBS overexpression and knock-down in HEK293T cells was determined by Western blotting using an anti-CBS antibody (3E1, 1:2000; Abnova). c CH004 induces cell death in HEK293T and HepG2 cells. […] The means of percentages of dead cells (DMSO, 100%) from three independent samples are shown in d. Means ± SDs (n = 3). e, f Pharmacological inhibition or genetic knock-down of hCBS in HEK293T cells arrests the cell cycle at S phase. HEK293T cells were incubated with indicated compounds for 12 h, and the DNA content was quantified with propidium iodide to analyze the cell cycle distribution by flow cytometry (e). The cell cycle distributions for HEK293T-shNT and HEK293T-shCBS cells were accordingly analyzed and are shown in f. One representative diagram is shown for each condition. The mean percentages of various cell phases from three independent samples are shown in the respective right panels. Means ± SDs (n = 3). […]
Figure S15. […] Indicated HEK293T stable cell lines were treated with CH004 at a concentration of 10 µM for 24 h, and the cell viability was then measured using the CellTiter96® Aqueous One Solution Cell Proliferation Assay (Promega). […]

HepG2 cells [2] = test: cell death, FITC Annexin V kit, flow cytometry; type: cell-based, human; conditions: 40 μM, 12 h
Protocol: Fig. 4 CH004 arrests the cell cycle at the S phase. a CH004 reduces the cell viability of HEK293T and HepG2 cells. HEK293T or HepG2 cells were treated with indicated concentrations of CH004 for 24 h before the cell number was analyzed using the CellTiter96® Aqueous One Solution Cell Proliferation Assay (Promega, Materials and Methods). The means at each concentration of one representative experiment are shown as percentages of DMSO (control, 100%). Means ± SDs (n = 3). b Overexpression of hCBS or knock-down of hCBS counteracts the growth inhibition exerted by CH004 in HEK293T cells. Indicated HEK293T stable cell lines were treated with the CH004 or DMSO for 24 h. Then, the cell viability was quantified with the CellTiter 96® Aqueous One Solution Cell Proliferation Assay under the standard protocol (Promega). […] The efficacy for CBS overexpression and knock-down in HEK293T cells was determined by Western blotting using an anti-CBS antibody (3E1, 1:2000; Abnova). c CH004 induces cell death in HEK293T and HepG2 cells. […] HEK293T cells were incubated with indicated compounds for 12 h, and the DNA content was quantified with propidium iodide to analyze the cell cycle distribution by flow cytometry (e). The cell cycle distributions for HEK293T-shNT and HEK293T-shCBS cells were accordingly analyzed and are shown in f. […]

Cn1nc(Cc2ccccc2)nc2c(=O)n(C)c(=O)nc1-2 [CH004, 3-benzyl-1,6-dimethylpyrimido[5,4-e][1,2,4]triazine-5,7(1H,6H)-dione]
IC50 (HepG2 cells [1]): ~11 µM
IC50 (HepG2 cells [1]; Homo sapiens, HepG2, 24 h): 11.3 ± 1.3 µM
increase in cell death (HepG2 cells [2]): ~ 80%
